Reference: ChEMBL document CHEMBL2417542 (Bioorg Med Chem Lett, 2013)
pEC50: −log10 of the molar value. Values after ≈ are worked out from the molar mass of the structure shown.

How the values were obtained:
[1] = system: Human immunodeficiency virus 1; assay: Antiviral activity against HIV1 3B harboring reverse transcriptase Y181C mutant infected in human MT2 cells assessed as protection against virus-induced effect by MTT assay; type: functional, organism-based; details: for pEC50: Human immunodeficiency virus 1, 3B, MT2, read-out: EC50
[2] = Aqueous solubility of the compound in Britton-Robinson buffer at pH 6.5 after 48 hrs by shake-flask method; type: physicochemical
[3] = system: Human immunodeficiency virus 1; assay: Antiviral activity against HIV1 3B harboring reverse transcriptase K103N/Y181C double mutant infected in human MT2 cells assessed as protection against virus-induced effect by MTT assay; type: functional, organism-based; details: for pEC50: Human immunodeficiency virus 1, 3B, MT2, read-out: EC50
[4] = system: Human immunodeficiency virus 1; assay: Antiviral activity against HIV1 3B harboring reverse transcriptase Y181C mutant infected in human MT4 cells assessed as protection against virus-induced effect; type: functional, organism-based; details: Human immunodeficiency virus 1, 3B
[5] = system: Human immunodeficiency virus 1; assay: Antiviral activity against wild type HIV1 3B infected in human MT4 cells assessed as protection against virus-induced effect; type: functional, organism-based; details: Human immunodeficiency virus 1, 3B
MT2 = assay: (§1) Cytotoxicity against human MT2 cells assessed as growth inhibition; type: cell-based; details: mt2
[6] = Aqueous solubility of the compound; type: physicochemical; details: aqueous medium
[7] = Solubility of the compound in water by HPLC analysis; type: physicochemical
[8] = as §1; type: cell-based; details: MT2 cells
[9] = Equilibrium solubility of the compound by shake-flask method; type: physicochemical
[10] = Intrinsic solubility of the compound in water at 25 degC after 7 days by HPLC analysis; type: physicochemical; details: buffer, 168 h

SMILES	pEC50 [1]	solubility thermodynamic at 48 h [2]	pEC50 [3]	also measured
Cc1cc(C)c(Nc2cc(OCCN3CCOCC3)nc(Nc3ccc(C#N)cc3)n2)c(C)c1	6.15	12.5 µg/mL (≈ 27.3 µM)	7.22	–
Cc1cc(C)c(Nc2cc(OCCCN3CCOCC3)nc(Nc3ccc(C#N)cc3)n2)c(C)c1	6.32	27.3 µg/mL (≈ 57.8 µM)	7.42	–
Cc1cc(C)c(Nc2nc(Nc3ccc(C#N)cc3)nc(OCCN3CCOCC3)n2)c(C)c1	6.15	4.42 µg/mL (≈ 9.62 µM)	6.96	–
Cc1cc(C)c(Nc2nc(Nc3ccc(C#N)cc3)nc(OCCCN3CCOCC3)n2)c(C)c1	6.51	15.3 µg/mL (≈ 32.3 µM)	7.51	–
Cc1cc(C#N)cc(C)c1Nc1nc(Nc2ccc(C#N)cc2)nc(OCCCN2CCOCC2)n1	6.00	13.3 µg/mL (≈ 27.4 µM)	7.38	–
Cc1cc(/C=C/C#N)cc(C)c1Nc1nc(Nc2ccc(C#N)cc2)nc(OCCCN2CCOCC2)n1	–	14.2 µg/mL (≈ 27.8 µM)	–	–
Cc1cc(F)c(Nc2nc(Nc3ccc(C#N)cc3)nc(OCCCN3CCOCC3)n2)c(F)c1	6.46	22.9 µg/mL (≈ 47.6 µM)	7.15	–
CCc1cc(F)c(Nc2nc(Nc3ccc(C#N)cc3)nc(OCCCN3CCOCC3)n2)c(F)c1	6.30	–	7.30	–
CC(C)c1cc(F)c(Nc2nc(Nc3ccc(C#N)cc3)nc(OCCCN3CCOCC3)n2)c(F)c1	6.57	–	7.52	–
N#Cc1ccc(Nc2nc(Nc3c(F)cc(C4CC4)cc3F)nc(OCCCN3CCOCC3)n2)cc1	5.96	–	6.82	–
Cc1cc(C)c(Nc2nc(Nc3ccc(C#N)cc3)nc(OCCC3CCNCC3)n2)c(C)c1	6.00	–	7.00	–
Cc1cc(C)c(Nc2nc(Nc3ccc(C#N)cc3)nc(OCCCC3CCNCC3)n2)c(C)c1	5.92	–	6.85	–
Cc1cc(C)c(Nc2ncnc(Nc3ccc(C#N)cc3)n2)c(C)c1	–	0.2 µg/mL (≈ 0.605 µM)	–	–
Cc1cc(C)c(Nc2ccnc(Nc3ccc(C#N)cc3)n2)c(C)c1 [DAPIVIRINE]	7.41	–	7.41	pEC50 [4]: 8.15; pEC50 [5]: 8.92; CC50 (MT2): 2000 nM
Cc1cc(C#N)cc(C)c1Oc1nc(Nc2ccc(C#N)cc2)nc(N)c1Br [ETRAVIRINE]	–	–	–	solubility [6]: < 1 µg/mL
Cc1ccnc2c1NC(=O)c1cccnc1N2C1CC1 [NEVIRAPINE]	–	–	–	EC50 ([1]; mt2): Not Active; solubility [7]: 167 µg/mL (≈ 627 µM); EC50 ([3]; mt2): Not Active; CC50 [8]: > 100000 nM
CN1C(C(=O)Nc2ccccn2)=C(O)c2ccccc2S1(=O)=O [PIROXICAM]	–	7.2 µg/mL (≈ 21.7 µM)	–	solubility thermodynamic [9]: 6.4 µg/mL (≈ 19.3 µM)
CC(C)=CCOc1cc(NC(=S)c2ccoc2C)ccc1Cl [UC 781]	–	–	–	Intrinsic_solubility [10]: < 0.03 µg/mL
